Measured values reported in patent US20240391940A1, “FUSED RING-CONTAINING COMPOUND, APPLICATION THEREOF, AND COMPOSITION CONTAINING SAME” (GenEros Biopharma Ltd., priority 2020, published 2024).
Read-outs that look alike come from different tables or passages of the source.

Tests used:
[1] = system: collagen-induced arthritis (CIA) mouse model; conditions: for clinical score / body weight: Mean ± SEM
[2] = system: collagen-induced arthritis (CIA) mouse model; experiment: Mouse CIA model, repeated for dose exploration (10, 30, 50 mg/kg); conditions: CIA mice
From the text: Testing was repeated for dose exploration
The above method was used.

[3] = GEN1-284s 10, 30 and 50 mg/kg qd po

O=C(Cc1ccc2ncccc2c1)N1CCC(n2c(=O)n(COP(=O)([O-])[O-])c3cccc(C(F)(F)F)c32)CC1.[Na+].[Na+] [GEN1-284 salt, (2-Oxo-3-(1-(2-(quinolin-6-yl)acetyl)piperidin-4-yl)-4-(trifluoromethyl)-2,3-dihydro-1H-benzo[d]imidazol-1-yl)methyl disodium phosphate]
Day on which consistent significant inhibition of the score of arthritis began ([1]; CIA mice, GEN1-284s 50 mg/kg): 32 days
Histomorphological effect on arthritis ([1]; CIA mice, GEN1-284s 50 mg/kg): tendency to relieve arthritis in animals
Inhibition rate of clinical score curve AUC relative to vehicle control group ([1]; CIA mice, GEN1-284s 50 mg/kg): 56.9%
Pathology total score ([1]; CIA mice, GEN1-284s 50 mg/kg): lower than that of the vehicle control group
clinical score ([1]; CIA mice, GEN1-284s 50 mg/kg p.o. QD from day 28, day 21): 0.0 ± 0.00
clinical score ([1]; CIA mice, GEN1-284s 50 mg/kg p.o. QD from day 28, day 25): 0.3 ± 0.16
clinical score ([1]; CIA mice, GEN1-284s 50 mg/kg p.o. QD from day 28, day 28): 0.6 ± 0.26
clinical score ([1]; CIA mice, GEN1-284s 50 mg/kg p.o. QD from day 28, day 29): 0.8 ± 0.25
clinical score ([1]; CIA mice, GEN1-284s 50 mg/kg p.o. QD from day 28, day 32): 1.3 ± 0.31
clinical score ([1]; CIA mice, GEN1-284s 50 mg/kg p.o. QD from day 28, day 34): 1.8 ± 0.56
clinical score ([1]; CIA mice, GEN1-284s 50 mg/kg p.o. QD from day 28, day 36): 2.4 ± 0.84
clinical score ([1]; CIA mice, GEN1-284s 50 mg/kg p.o. QD from day 28, day 39): 2.9 ± 0.90
body weight ([1]; CIA mice, GEN1-284s 50 mg/kg, day 21): 20.64 ± 0.23
body weight ([1]; CIA mice, GEN1-284s 50 mg/kg, day 25): 20.73 ± 0.24
body weight ([1]; CIA mice, GEN1-284s 50 mg/kg, day 28): 20.65 ± 0.25
body weight ([1]; CIA mice, GEN1-284s 50 mg/kg, day 29): 20.49 ± 0.25
body weight ([1]; CIA mice, GEN1-284s 50 mg/kg, day 32): 19.66 ± 0.28
body weight ([1]; CIA mice, GEN1-284s 50 mg/kg, day 34): 20.41 ± 0.31
body weight ([1]; CIA mice, GEN1-284s 50 mg/kg, day 36): 20.54 ± 0.36
body weight ([1]; CIA mice, GEN1-284s 50 mg/kg, day 39): 20.48 ± 0.27
body weight ([1]; CIA mice, GEN1-284s 50 mg/kg, day 41): 20.95 ± 0.20
Day on which consistent significant inhibition of the score of arthritis began ([1]; CIA mice, GEN1-284s 150 mg/kg): 34 days
clinical score ([1]; CIA mice, GEN1-284s 150 mg/kg p.o. QD from day 28, day 21): 0.0 ± 0.00
clinical score ([1]; CIA mice, GEN1-284s 150 mg/kg p.o. QD from day 28, day 25): 0.0 ± 0.00
clinical score ([1]; CIA mice, GEN1-284s 150 mg/kg p.o. QD from day 28, day 28): 0.6 ± 0.26
clinical score ([1]; CIA mice, GEN1-284s 150 mg/kg p.o. QD from day 28, day 29): 0.9 ± 0.40
clinical score ([1]; CIA mice, GEN1-284s 150 mg/kg p.o. QD from day 28, day 32): 2.0 ± 0.42
clinical score ([1]; CIA mice, GEN1-284s 150 mg/kg p.o. QD from day 28, day 34): 2.5 ± 0.57
clinical score ([1]; CIA mice, GEN1-284s 150 mg/kg p.o. QD from day 28, day 36): 3.4 ± 0.78
clinical score ([1]; CIA mice, GEN1-284s 150 mg/kg p.o. QD from day 28, day 39): 3.9 ± 0.93
body weight ([1]; CIA mice, GEN1-284s 150 mg/kg, day 21): 20.40 ± 0.23
body weight ([1]; CIA mice, GEN1-284s 150 mg/kg, day 25): 20.53 ± 0.27
body weight ([1]; CIA mice, GEN1-284s 150 mg/kg, day 28): 20.64 ± 0.24
body weight ([1]; CIA mice, GEN1-284s 150 mg/kg, day 29): 20.48 ± 0.29
body weight ([1]; CIA mice, GEN1-284s 150 mg/kg, day 32): 20.06 ± 0.25
body weight ([1]; CIA mice, GEN1-284s 150 mg/kg, day 34): 20.41 ± 0.41
body weight ([1]; CIA mice, GEN1-284s 150 mg/kg, day 36): 20.70 ± 0.35
body weight ([1]; CIA mice, GEN1-284s 150 mg/kg, day 39): 20.40 ± 0.29
body weight ([1]; CIA mice, GEN1-284s 150 mg/kg, day 41): 20.91 ± 0.26
clinical score ([1]; CIA mice, GEN1-284s 300 mg/kg group (500 mg/kg 5 days, then 300 mg/kg) p.o. QD from day 28, day 21): 0.0 ± 0.00
clinical score ([1]; CIA mice, GEN1-284s 300 mg/kg group (500 mg/kg 5 days, then 300 mg/kg) p.o. QD from day 28, day 25): 0.0 ± 0.00
clinical score ([1]; CIA mice, GEN1-284s 300 mg/kg group (500 mg/kg 5 days, then 300 mg/kg) p.o. QD from day 28, day 28): 0.6 ± 0.26
clinical score ([1]; CIA mice, GEN1-284s 300 mg/kg group (500 mg/kg 5 days, then 300 mg/kg) p.o. QD from day 28, day 29): 0.6 ± 0.24
clinical score ([1]; CIA mice, GEN1-284s 300 mg/kg group (500 mg/kg 5 days, then 300 mg/kg) p.o. QD from day 28, day 32): 2.0 ± 0.58
clinical score ([1]; CIA mice, GEN1-284s 300 mg/kg group (500 mg/kg 5 days, then 300 mg/kg) p.o. QD from day 28, day 34): 2.5 ± 0.87
clinical score ([1]; CIA mice, GEN1-284s 300 mg/kg group (500 mg/kg 5 days, then 300 mg/kg) p.o. QD from day 28, day 36): 4.0 ± 1.15
clinical score ([1]; CIA mice, GEN1-284s 300 mg/kg group (500 mg/kg 5 days, then 300 mg/kg) p.o. QD from day 28, day 39): 5.5 ± 1.19
clinical score ([1]; CIA mice, GEN1-284s 300 mg/kg group (500 mg/kg 5 days, then 300 mg/kg) p.o. QD from day 28, day 41): 6.3 ± 1.38
body weight ([1]; CIA mice, GEN1-284s 300 mg/kg group (500 mg/kg 5 days, then 300 mg/kg), day 21): 20.18 ± 0.29
body weight ([1]; CIA mice, GEN1-284s 300 mg/kg group (500 mg/kg 5 days, then 300 mg/kg), day 25): 20.43 ± 0.27
body weight ([1]; CIA mice, GEN1-284s 300 mg/kg group (500 mg/kg 5 days, then 300 mg/kg), day 28): 20.65 ± 0.34
body weight ([1]; CIA mice, GEN1-284s 300 mg/kg group (500 mg/kg 5 days, then 300 mg/kg), day 29): 20.08 ± 0.49
body weight ([1]; CIA mice, GEN1-284s 300 mg/kg group (500 mg/kg 5 days, then 300 mg/kg), day 32): 19.48 ± 1.02
body weight ([1]; CIA mice, GEN1-284s 300 mg/kg group (500 mg/kg 5 days, then 300 mg/kg), day 34): 19.30 ± 1.05
body weight ([1]; CIA mice, GEN1-284s 300 mg/kg group (500 mg/kg 5 days, then 300 mg/kg), day 36): 19.60 ± 0.81
body weight ([1]; CIA mice, GEN1-284s 300 mg/kg group (500 mg/kg 5 days, then 300 mg/kg), day 39): 19.80 ± 0.96
body weight ([1]; CIA mice, GEN1-284s 300 mg/kg group (500 mg/kg 5 days, then 300 mg/kg), day 41): 20.30 ± 0.78
Mortality ([1]; CIA mice, GEN1-284s 500 mg/kg): death was caused among the mice
Tolerance ([1]; CIA mice, GEN1-284s 50, 150 and 300 mg/kg): good tolerance
Number of mice that died ([1]; high-dose group (500 mg/kg), day 32): On day 32, 1 mouse in the high-dose group died, and the dissection results showed that: the major abnormality was in the lungs, and no obvious abnormality was found in other organs.
Effect on the score of arthritis [2, 3]: consistently and significantly inhibit the score of arthritis
Score of arthritis compared with the tofacitinib positive group [2, 3]: no significant difference from the tofacitinib positive group
Tolerance [2, 3]: good tolerance
Significance of clinical score vs. Vehicle group (Two-way ANOVA) ([2]; GEN1-284s 10 mpk, Day 35): ns
Significance of clinical score vs. Vehicle group (Two-way ANOVA) ([2]; GEN1-284s 10 mpk, Day 38): ns
Significance of clinical score vs. Vehicle group (Two-way ANOVA) ([2]; GEN1-284s 10 mpk, Day 40): ns
Significance of clinical score vs. Vehicle group (Two-way ANOVA) ([2]; GEN1-284s 10 mpk, Day 42): * (*P < 0.05)
Significance of clinical score vs. Vehicle group (Two-way ANOVA) ([2]; GEN1-284s 30 mpk, Day 35): ns
Significance of clinical score vs. Vehicle group (Two-way ANOVA) ([2]; GEN1-284s 30 mpk, Day 38): ** (**P < 0.01)
Significance of clinical score vs. Vehicle group (Two-way ANOVA) ([2]; GEN1-284s 30 mpk, Day 40): * (*P < 0.05)
Significance of clinical score vs. Vehicle group (Two-way ANOVA) ([2]; GEN1-284s 30 mpk, Day 42): * (*P < 0.05)
